Measured values reported in US12495798B2, “Nicotinamide compound and herbicidal composition comprising compound” (KOREA RESEARCH INSTITUTE OF CHEMICAL TECHNOLOGY, priority 2019, dated 2025).

Assays:
Format in all cases: in vivo
[1] = tested on: cotton; test: Phytotoxicity test for field crops (soil treatment test); set-up: key: 0 (no harm); 9 (complete withered)
Method in brief: (§1)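 Each value is a 0–9 visual phytotoxicity grade from greenhouse pots (30±5° C, 14 h light/10 h dark). Sterilized soil of pH 6.1 was sprayed one day after sowing with 19˜300 g a.i./ha in 33% acetone containing 0.1% Tween-20, and injury was assessed at 10 and 20 days.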

[2] = tested on: rice; test: as above; set-up: key: 0 (no harm); 9 (complete withered)
Method in brief: as §1

[3] = tested on: corn; test: as above; set-up: key: 0 (no harm); 9 (complete withered)
Method in brief: as §1

[4] = tested on: soybean; test: as above; set-up: key: 0 (no harm); 9 (complete withered)
Method in brief: as §1

[5] = tested on: wheat; test: as above; set-up: key: 0 (no harm); 9 (complete withered)
Method in brief: as §1

[6] = tested on: quack grass; test: Herbicidal activity test against upland field weeds (soil treatment test); set-up: key to Soil treatment herbicidal activity, quack grass: 0 (no control); 100 (complete control); details: 50 g ai/ha, scale 0 (no control) to 100 (complete control)
Method in brief: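 Pre-emergence test: seeds or rootstocks were sown in fertilized sandy loam, and the next day the soil surface was sprayed with compound at 50 or 75 g a.i./ha in 50% acetone/0.1% Tween-20. Plants were grown in a greenhouse (30±5 °C, 14/10 h light/dark), then visually scored 0–100 against untreated at 14 d (21 d if needed).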

[7] = tested on: cotton; test: Phytotoxicity test for upland field crops (foliar treatment test); set-up: key: 0 (no harm); 9 (complete withered)
Method in brief: (§2)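 Application rate ranged 19˜300 g a.i./ha, delivered as a foliar spray (100 ml/m^2) in 33% acetone with 0.1% Tween-20 to crops raised at 30±5 °C under 14/10 h light/dark. Symptoms were assessed 7 and 14 days post-treatment, extending to 21 days where necessary, using a 0–9 injury grade relative to untreated control.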

[8] = tested on: rice; test: as above; set-up: key: 0 (no harm); 9 (complete withered)
Method in brief: as §2

[9] = tested on: corn; test: as above; set-up: key: 0 (no harm); 9 (complete withered)
Method in brief: as §2

[10] = tested on: soybean; test: as above; set-up: key: 0 (no harm); 9 (complete withered)
Method in brief: as §2

[11] = tested on: wheat; test: as above; set-up: key: 0 (no harm); 9 (complete withered)
Method in brief: as §2

[12] = 50 g ai/ha, Cotton (10 days after treatment)
[13] = 50 g ai/ha, Cotton (20 days after treatment)
[14] = 100 g ai/ha, Cotton (10 days after treatment)
[15] = 100 g ai/ha, Cotton (20 days after treatment)
[16] = 50 g ai/ha, Rice (10 days after treatment)
[17] = 50 g ai/ha, Rice (20 days after treatment)
[18] = 100 g ai/ha, Rice (10 days after treatment)
[19] = 100 g ai/ha, Rice (20 days after treatment)
[20] = 50 g ai/ha, Corn (10 days after treatment)
[21] = 50 g ai/ha, Corn (20 days after treatment)
[22] = 100 g ai/ha, Corn (10 days after treatment)
[23] = 100 g ai/ha, Corn (20 days after treatment)
[24] = 50 g ai/ha, Soybean (10 days after treatment)
[25] = 50 g ai/ha, Soybean (20 days after treatment)
[26] = 100 g ai/ha, Soybean (10 days after treatment)
[27] = 100 g ai/ha, Soybean (20 days after treatment)
[28] = 50 g ai/ha, Wheat (10 days after treatment)
[29] = 50 g ai/ha, Wheat (20 days after treatment)
[30] = 100 g ai/ha, Wheat (10 days after treatment)
[31] = 100 g ai/ha, Wheat (20 days after treatment)
[32] = 50 g ai/ha, Cotton (7 days after treatment)
[33] = 50 g ai/ha, Cotton (14 days after treatment)
[34] = 100 g ai/ha, Cotton (7 days after treatment)
[35] = 100 g ai/ha, Cotton (14 days after treatment)
[36] = 50 g ai/ha, Rice (7 days after treatment)
[37] = 50 g ai/ha, Rice (14 days after treatment)
[38] = 100 g ai/ha, Rice (7 days after treatment)
[39] = 100 g ai/ha, Rice (14 days after treatment)
[40] = 50 g ai/ha, Corn (7 days after treatment)
[41] = 50 g ai/ha, Corn (14 days after treatment)
[42] = 100 g ai/ha, Corn (7 days after treatment)
[43] = 100 g ai/ha, Corn (14 days after treatment)
[44] = 50 g ai/ha, Soybean (7 days after treatment)
[45] = 50 g ai/ha, Soybean (14 days after treatment)
[46] = 100 g ai/ha, Soybean (7 days after treatment)
[47] = 100 g ai/ha, Soybean (14 days after treatment)
[48] = 50 g ai/ha, Wheat (7 days after treatment)
[49] = 50 g ai/ha, Wheat (14 days after treatment)
[50] = 100 g ai/ha, Wheat (7 days after treatment)
[51] = 100 g ai/ha, Wheat (14 days after treatment)

## Cn1ncnc1COc1nc(C(F)(F)F)ccc1C(=O)Nc1nnnn1C [Compound No. 1-45, 2-((1-methyl-1H-1,2,4-triazol-5-yl)methoxy)-N-(1-methyl-1H-tetrazol-5-yl)-6-(trifluoromethyl)nicotinamide]
[1]; [12]
  Soil treatment phytotoxicity, Cotton: 1
[1]; [13]
  Soil treatment phytotoxicity, Cotton: 4
[1]; [14]
  Soil treatment phytotoxicity, Cotton: 3
[1]; [15]
  Soil treatment phytotoxicity, Cotton: 5
[2]; [16]
  Soil treatment phytotoxicity, Rice: 9
[2]; [17]
  Soil treatment phytotoxicity, Rice: 9
[2]; [18]
  Soil treatment phytotoxicity, Rice: 9
[2]; [19]
  Soil treatment phytotoxicity, Rice: 9
[3]; [20]
  Soil treatment phytotoxicity, Corn: 0
[3]; [21]
  Soil treatment phytotoxicity, Corn: 0
[3]; [22]
  Soil treatment phytotoxicity, Corn: 1
[3]; [23]
  Soil treatment phytotoxicity, Corn: 0
[4]; [24]
  Soil treatment phytotoxicity, Soybean: 0
[4]; [25]
  Soil treatment phytotoxicity, Soybean: 0
[4]; [26]
  Soil treatment phytotoxicity, Soybean: 0
[4]; [27]
  Soil treatment phytotoxicity, Soybean: 0
[5]; [28]
  Soil treatment phytotoxicity, Wheat: 0
[5]; [29]
  Soil treatment phytotoxicity, Wheat: 0
[5]; [30]
  Soil treatment phytotoxicity, Wheat: 0
[5]; [31]
  Soil treatment phytotoxicity, Wheat: 0
[6]
  Soil treatment herbicidal activity, quack grass: 0
[7]; [32]
  Foliar treatment phytotoxicity, Cotton: 5
[7]; [33]
  Foliar treatment phytotoxicity, Cotton: 9
[7]; [34]
  Foliar treatment phytotoxicity, Cotton: 5
[7]; [35]
  Foliar treatment phytotoxicity, Cotton: 9
[8]; [36]
  Foliar treatment phytotoxicity, Rice: 6
[8]; [37]
  Foliar treatment phytotoxicity, Rice: 9
[8]; [38]
  Foliar treatment phytotoxicity, Rice: 6
[8]; [39]
  Foliar treatment phytotoxicity, Rice: 9
[9]; [40]
  Foliar treatment phytotoxicity, Corn: 1
[9]; [41]
  Foliar treatment phytotoxicity, Corn: 0
[9]; [42]
  Foliar treatment phytotoxicity, Corn: 3
[9]; [43]
  Foliar treatment phytotoxicity, Corn: 2
[10]; [44]
  Foliar treatment phytotoxicity, Soybean: 6
[10]; [45]
  Foliar treatment phytotoxicity, Soybean: 7.5
[10]; [46]
  Foliar treatment phytotoxicity, Soybean: 7
[10]; [47]
  Foliar treatment phytotoxicity, Soybean: 9
[11]; [48]
  Foliar treatment phytotoxicity, Wheat: 0
[11]; [49]
  Foliar treatment phytotoxicity, Wheat: 0
[11]; [50]
  Foliar treatment phytotoxicity, Wheat: 0
[11]; [51]
  Foliar treatment phytotoxicity, Wheat: 0

## CON(Cc1nnn(C)n1)c1nc(C(F)(F)F)ccc1C(=O)Nc1nnnn1C [Compound No. 2-30, 2-(methoxy((2-methyl-2H-tetrazol-5-yl)methyl)amino)-N-(1-methyl-1H-tetrazol-5-yl)-6-(trifluoromethyl)nicotinamide]
[1]; [12]
  Soil treatment phytotoxicity, Cotton: 2
[1]; [13]
  Soil treatment phytotoxicity, Cotton: 9
[1]; [14]
  Soil treatment phytotoxicity, Cotton: 2
[1]; [15]
  Soil treatment phytotoxicity, Cotton: 9
[2]; [16]
  Soil treatment phytotoxicity, Rice: 4
[2]; [17]
  Soil treatment phytotoxicity, Rice: 9
[2]; [18]
  Soil treatment phytotoxicity, Rice: 6
[2]; [19]
  Soil treatment phytotoxicity, Rice: 9
[3]; [20]
  Soil treatment phytotoxicity, Corn: 0
[3]; [21]
  Soil treatment phytotoxicity, Corn: 0
[3]; [22]
  Soil treatment phytotoxicity, Corn: 0
[3]; [23]
  Soil treatment phytotoxicity, Corn: 0
[4]; [24]
  Soil treatment phytotoxicity, Soybean: 7
[4]; [25]
  Soil treatment phytotoxicity, Soybean: 7
[4]; [26]
  Soil treatment phytotoxicity, Soybean: 7
[4]; [27]
  Soil treatment phytotoxicity, Soybean: 7
[5]; [28]
  Soil treatment phytotoxicity, Wheat: 0
[5]; [29]
  Soil treatment phytotoxicity, Wheat: 1
[5]; [30]
  Soil treatment phytotoxicity, Wheat: 0
[5]; [31]
  Soil treatment phytotoxicity, Wheat: 1
[6]
  Soil treatment herbicidal activity, quack grass: 0
[7]; [32]
  Foliar treatment phytotoxicity, Cotton: 0
[7]; [33]
  Foliar treatment phytotoxicity, Cotton: 0
[7]; [34]
  Foliar treatment phytotoxicity, Cotton: 3
[7]; [35]
  Foliar treatment phytotoxicity, Cotton: 8
[8]; [36]
  Foliar treatment phytotoxicity, Rice: 3
[8]; [37]
  Foliar treatment phytotoxicity, Rice: 5
[8]; [38]
  Foliar treatment phytotoxicity, Rice: 5
[8]; [39]
  Foliar treatment phytotoxicity, Rice: 7
[9]; [40]
  Foliar treatment phytotoxicity, Corn: 0
[9]; [41]
  Foliar treatment phytotoxicity, Corn: 0
[9]; [42]
  Foliar treatment phytotoxicity, Corn: 1
[9]; [43]
  Foliar treatment phytotoxicity, Corn: 1
[10]; [44]
  Foliar treatment phytotoxicity, Soybean: 0
[10]; [45]
  Foliar treatment phytotoxicity, Soybean: 0
[10]; [46]
  Foliar treatment phytotoxicity, Soybean: 6
[10]; [47]
  Foliar treatment phytotoxicity, Soybean: 6
[11]; [48]
  Foliar treatment phytotoxicity, Wheat: 2
[11]; [49]
  Foliar treatment phytotoxicity, Wheat: 1
[11]; [50]
  Foliar treatment phytotoxicity, Wheat: 3
[11]; [51]
  Foliar treatment phytotoxicity, Wheat: 3

## Cn1nnc(COCc2nc(C(F)(F)F)ccc2C(=O)N(c2nnnn2C)S(C)(=O)=O)n1 [Compound No. 2-69, N-(1-methyl-1H-tetrazol-5-yl)-2-(((2-methyl-2H-tetrazol-5-yl)methoxy)methyl)-N-(methylsulfonyl)-6-(trifluoromethyl)nicotinamide]
[1]; [12]
  Soil treatment phytotoxicity, Cotton: 1
[1]; [13]
  Soil treatment phytotoxicity, Cotton: 5
[2]; [16]
  Soil treatment phytotoxicity, Rice: 7
[2]; [17]
  Soil treatment phytotoxicity, Rice: 8
[3]; [20]
  Soil treatment phytotoxicity, Corn: 0
[3]; [21]
  Soil treatment phytotoxicity, Corn: 0
[4]; [24]
  Soil treatment phytotoxicity, Soybean: 0
[4]; [25]
  Soil treatment phytotoxicity, Soybean: 0
[5]; [28]
  Soil treatment phytotoxicity, Wheat: 0
[5]; [29]
  Soil treatment phytotoxicity, Wheat: 1
[6]
  Soil treatment herbicidal activity, quack grass: 0
[7]; [32]
  Foliar treatment phytotoxicity, Cotton: 4
[7]; [33]
  Foliar treatment phytotoxicity, Cotton: 9
[8]; [36]
  Foliar treatment phytotoxicity, Rice: 6
[8]; [37]
  Foliar treatment phytotoxicity, Rice: 7
[9]; [40]
  Foliar treatment phytotoxicity, Corn: 4
[9]; [41]
  Foliar treatment phytotoxicity, Corn: 3
[10]; [44]
  Foliar treatment phytotoxicity, Soybean: 6
[10]; [45]
  Foliar treatment phytotoxicity, Soybean: 6
[11]; [48]
  Foliar treatment phytotoxicity, Wheat: 0
[11]; [49]
  Foliar treatment phytotoxicity, Wheat: 0

## Cn1nnc(COCc2nc(C(F)F)ccc2C(=O)Nc2nnnn2C)n1 [Compound No. 2-84, 6-(difluoromethyl)-N-(1-methyl-1H-tetrazol-5-yl)-2-(((2-methyl-2H-tetrazol-5-yl)methoxy)methyl)nicotinamide]
[1]; [12]
  Soil treatment phytotoxicity, Cotton: 0
[1]; [13]
  Soil treatment phytotoxicity, Cotton: 6
[1]; [14]
  Soil treatment phytotoxicity, Cotton: 3
[1]; [15]
  Soil treatment phytotoxicity, Cotton: 7
[2]; [16]
  Soil treatment phytotoxicity, Rice: 5
[2]; [17]
  Soil treatment phytotoxicity, Rice: 3
[2]; [18]
  Soil treatment phytotoxicity, Rice: 6
[2]; [19]
  Soil treatment phytotoxicity, Rice: 7
[3]; [20]
  Soil treatment phytotoxicity, Corn: 0
[3]; [21]
  Soil treatment phytotoxicity, Corn: 0
[3]; [22]
  Soil treatment phytotoxicity, Corn: 1
[3]; [23]
  Soil treatment phytotoxicity, Corn: 0
[4]; [24]
  Soil treatment phytotoxicity, Soybean: 0
[4]; [25]
  Soil treatment phytotoxicity, Soybean: 0
[4]; [26]
  Soil treatment phytotoxicity, Soybean: 0
[4]; [27]
  Soil treatment phytotoxicity, Soybean: 0
[5]; [28]
  Soil treatment phytotoxicity, Wheat: 0
[5]; [29]
  Soil treatment phytotoxicity, Wheat: 0
[5]; [30]
  Soil treatment phytotoxicity, Wheat: 0
[6]
  Soil treatment herbicidal activity, quack grass: 0
[7]; [32]
  Foliar treatment phytotoxicity, Cotton: 5
[7]; [33]
  Foliar treatment phytotoxicity, Cotton: 9
[7]; [34]
  Foliar treatment phytotoxicity, Cotton: 5
[7]; [35]
  Foliar treatment phytotoxicity, Cotton: 9
[8]; [36]
  Foliar treatment phytotoxicity, Rice: 6
[8]; [37]
  Foliar treatment phytotoxicity, Rice: 7
[8]; [38]
  Foliar treatment phytotoxicity, Rice: 6
[8]; [39]
  Foliar treatment phytotoxicity, Rice: 9
[9]; [40]
  Foliar treatment phytotoxicity, Corn: 2
[9]; [41]
  Foliar treatment phytotoxicity, Corn: 1
[9]; [42]
  Foliar treatment phytotoxicity, Corn: 3
[9]; [43]
  Foliar treatment phytotoxicity, Corn: 4
[10]; [44]
  Foliar treatment phytotoxicity, Soybean: 6
[10]; [45]
  Foliar treatment phytotoxicity, Soybean: 7
[10]; [46]
  Foliar treatment phytotoxicity, Soybean: 6
[10]; [47]
  Foliar treatment phytotoxicity, Soybean: 8
[11]; [48]
  Foliar treatment phytotoxicity, Wheat: 0
[11]; [49]
  Foliar treatment phytotoxicity, Wheat: 0
[11]; [50]
  Foliar treatment phytotoxicity, Wheat: 0
[11]; [51]
  Foliar treatment phytotoxicity, Wheat: 0
